From US6656958B2, “Substituted pyridine compounds useful for controlling chemical synaptic transmission” (Abbott Laboratories, priority 2000, dated 2003) come the findings set out here.

Where only a bound is given, the exact number is not on record here.

Data set [1] deals with neuronal nicotinic acetylcholine receptors (Rattus norvegicus, UniProt P09483+P12390). Nature of the data set: [3H]-cytisine binding to neuronal nicotinic acetylcholine receptors, crude synaptic membranes from whole rat brain. The following applies: [3H]-CYT 1.25 nM, 60 minutes at 4° C., K1 from IC50 by Cheng and Prusoff correction. How it is done: The in vitro protocols for determination of nicotinic acetylcholine channel receptor binding potencies of ligands was determined as follows.
Sequence of neuronal nicotinic acetylcholine receptors (P09483 31-630): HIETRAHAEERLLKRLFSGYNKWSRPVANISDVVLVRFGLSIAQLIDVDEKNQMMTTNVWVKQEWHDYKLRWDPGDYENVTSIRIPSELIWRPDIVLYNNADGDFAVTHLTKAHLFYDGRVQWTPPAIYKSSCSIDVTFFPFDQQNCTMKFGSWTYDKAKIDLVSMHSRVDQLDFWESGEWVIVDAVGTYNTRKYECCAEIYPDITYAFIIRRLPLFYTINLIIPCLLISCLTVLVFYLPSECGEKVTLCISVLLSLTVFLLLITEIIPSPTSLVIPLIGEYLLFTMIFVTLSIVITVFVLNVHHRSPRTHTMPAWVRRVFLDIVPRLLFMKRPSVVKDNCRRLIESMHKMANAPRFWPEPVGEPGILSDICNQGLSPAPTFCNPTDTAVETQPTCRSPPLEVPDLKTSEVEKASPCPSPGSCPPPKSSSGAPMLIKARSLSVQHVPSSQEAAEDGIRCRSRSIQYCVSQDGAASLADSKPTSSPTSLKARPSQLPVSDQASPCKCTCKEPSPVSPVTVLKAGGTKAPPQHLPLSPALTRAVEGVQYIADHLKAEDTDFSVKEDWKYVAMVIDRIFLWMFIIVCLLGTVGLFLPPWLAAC
Sequence of neuronal nicotinic acetylcholine receptors (P12390 25-500): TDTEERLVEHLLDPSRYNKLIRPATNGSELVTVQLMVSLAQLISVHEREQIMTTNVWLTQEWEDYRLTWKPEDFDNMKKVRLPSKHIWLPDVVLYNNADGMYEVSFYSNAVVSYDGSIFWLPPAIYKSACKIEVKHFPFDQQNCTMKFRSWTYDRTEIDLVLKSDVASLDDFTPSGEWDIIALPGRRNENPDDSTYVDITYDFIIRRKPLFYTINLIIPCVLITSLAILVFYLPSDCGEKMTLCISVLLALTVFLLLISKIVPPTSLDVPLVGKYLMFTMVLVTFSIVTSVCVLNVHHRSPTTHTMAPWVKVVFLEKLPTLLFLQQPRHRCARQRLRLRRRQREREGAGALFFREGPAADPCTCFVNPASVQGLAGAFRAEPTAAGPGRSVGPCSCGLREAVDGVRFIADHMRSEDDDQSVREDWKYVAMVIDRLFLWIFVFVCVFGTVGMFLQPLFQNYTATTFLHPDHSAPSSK
Binding of [^3H]-cytisine ([^3H]-CYT) to neuronal nicotinic acetylcholine receptors was accomplished using crude synaptic membrane preparations from whole rat brain (Pabreza et al., Molecular Pharmacol., 1990, 39:9). Washed membranes were stored at −80° C. prior to use. Frozen aliquots were slowly thawed and resuspended in 20 volumes of buffer (containing: 120 mM NaCl, 5 mM KCl, 2 mM MgCl2, 2 mM CaCl2 and 50 mM Tris-Cl, pH 7.4 @4° C.). After centrifuging at 20,000×g for 15 minutes, the pellets were resuspended in 30 volumes of buffer.
The test compounds were dissolved in water to make 10 mM stock solutions.
Samples were incubated for 60 minutes at 4° C., then rapidly filtered through Whatman GF/B filters presoaked in 0.5% polyethyleneimine using 3×4 mL of ice-cold buffer. The filters are counted in 4 mL of Ecolume® (ICN). Nonspecific binding was determined in the presence of 10 μM (−)-nicotine and values were expressed as a percentage of total binding. IC50 values were determined with a four-parameter non-linear regression and IC50 values were converted to K1 values using the Cheng and Prusoff correction (K1=IC50/(1+[ligand]/Kd of ligand).
Each Example number corresponds to the synthetic Examples described above.

For data set [2], the system named is mice (hot plate paradigm). The experiment in a line: mouse hot plate paradigm (analgesia, tenth jump latency). It is filed as in vivo. The following applies: footnote symbols: no significant effect at the stated dose, intraperitoneal, 30 minutes prior to testing, hot plate 55° C. As for the experimental part: An in vivo protocol was utilized to determine the effectiveness of nicotinic acetylcholine receptor ligands as analgesic agents in the mouse hot plate paradigm.
Separate groups of mice, (n=8/group) were utilized for each dose group. All drugs were administered by the intraperitoneal route of administration. Test drugs were dissolved in water to make a 6.2 mM stock solution. Animals were dosed with this solution (10 mL/kg body weight) for a 62 micromol/kg dose. Lower doses were administered similarly, following serial dilution of the stock solution in half-log increments. Animals were dosed 30 minutes prior to testing in the hot plate. The hot-plate utilized was an automated analgesia monitor (Model #AHP16AN, Omnitech Electronics, Inc. of Columbus, Ohio). The temperature of the hot plate was maintained at 55° C. and a cut-off time of 180 seconds was utilized. A control was run against each compound tested. Latency until the tenth jump was recorded as the dependent measure. An increase in the tenth jump latency relative to the control was considered a significant effect.

“5-[(S)-2-amino-1-propyloxy]-2-chloro-3-(4-vinylpyridinyl)pyridine p-toluenesulfonic acid [Example 13]”: the affinity in data set [1] corresponds to a Ki of 0.0761 nM.
On to `C[C@@H](COc1cnc(Cl)c(C=Cc2ccncc2)c1)N(C)C` (single isomer, unassigned) [Example 14], for which the melting point – broadly, the temperature, or range, at which the solid turns liquid – lay in the range of 79 to 81 °C. For the same compound, the “Analgesic MED (μmol/kg)” value in data set [2] is “* (no effect at 62)”.
Take `C[C@H](COc1cnc(Cl)c(C=Cc2ccncc2)c1)N(C)C` (single isomer, unassigned) [Example 39]: the melting point lay within 81 to 83 °C. In addition, in data set [2], the “Analgesic MED (μmol/kg)” value is recorded as “* (no effect at 62)”.
For the compound `CN(C)[C@H](COc1cnc(Cl)c(C=Cc2ccncc2)c1)Cc1ccccc1` [Example 24, 5-[(S)-2-N-dimethyl-amino-3-phenyl-1-propyloxy]-2-chloro-3-(4-vinylpyridinyl)pyridine di-p-toluenesulfonic acid], the minimal effective dose in data set [2] (Mus musculus, ip, 0.5 h, read-out: Analgesic MED) was above 62 µmol/kg.
Regarding `C[C@@H](COc1ccc(Cl)nc1)N(C)C.Cc1ccc(S(=O)(=O)O)cc1` [Example 27, 5-[(S)-2-dimethylamino-1-propyloxy]-2-chloro pyridine p-toluenesulfonic acid], in data set [2], the “Analgesic MED (μmol/kg)” value is reported as “* (no effect at 62)”.
